From publication PMC7253177, “Gain of channel function and modified gating properties in TRPM3 mutants causing intellectual disability and epilepsy” (eLife, 2020)

Biological target: T1, WT human TRPM3 (Homo sapiens, UniProt Q9HCF6)
T1 construct: expressed in transfected cells; host or cells: HEK293T
T1 sequence (Q9HCF6 1-1325 isoform Q9HCF6-10): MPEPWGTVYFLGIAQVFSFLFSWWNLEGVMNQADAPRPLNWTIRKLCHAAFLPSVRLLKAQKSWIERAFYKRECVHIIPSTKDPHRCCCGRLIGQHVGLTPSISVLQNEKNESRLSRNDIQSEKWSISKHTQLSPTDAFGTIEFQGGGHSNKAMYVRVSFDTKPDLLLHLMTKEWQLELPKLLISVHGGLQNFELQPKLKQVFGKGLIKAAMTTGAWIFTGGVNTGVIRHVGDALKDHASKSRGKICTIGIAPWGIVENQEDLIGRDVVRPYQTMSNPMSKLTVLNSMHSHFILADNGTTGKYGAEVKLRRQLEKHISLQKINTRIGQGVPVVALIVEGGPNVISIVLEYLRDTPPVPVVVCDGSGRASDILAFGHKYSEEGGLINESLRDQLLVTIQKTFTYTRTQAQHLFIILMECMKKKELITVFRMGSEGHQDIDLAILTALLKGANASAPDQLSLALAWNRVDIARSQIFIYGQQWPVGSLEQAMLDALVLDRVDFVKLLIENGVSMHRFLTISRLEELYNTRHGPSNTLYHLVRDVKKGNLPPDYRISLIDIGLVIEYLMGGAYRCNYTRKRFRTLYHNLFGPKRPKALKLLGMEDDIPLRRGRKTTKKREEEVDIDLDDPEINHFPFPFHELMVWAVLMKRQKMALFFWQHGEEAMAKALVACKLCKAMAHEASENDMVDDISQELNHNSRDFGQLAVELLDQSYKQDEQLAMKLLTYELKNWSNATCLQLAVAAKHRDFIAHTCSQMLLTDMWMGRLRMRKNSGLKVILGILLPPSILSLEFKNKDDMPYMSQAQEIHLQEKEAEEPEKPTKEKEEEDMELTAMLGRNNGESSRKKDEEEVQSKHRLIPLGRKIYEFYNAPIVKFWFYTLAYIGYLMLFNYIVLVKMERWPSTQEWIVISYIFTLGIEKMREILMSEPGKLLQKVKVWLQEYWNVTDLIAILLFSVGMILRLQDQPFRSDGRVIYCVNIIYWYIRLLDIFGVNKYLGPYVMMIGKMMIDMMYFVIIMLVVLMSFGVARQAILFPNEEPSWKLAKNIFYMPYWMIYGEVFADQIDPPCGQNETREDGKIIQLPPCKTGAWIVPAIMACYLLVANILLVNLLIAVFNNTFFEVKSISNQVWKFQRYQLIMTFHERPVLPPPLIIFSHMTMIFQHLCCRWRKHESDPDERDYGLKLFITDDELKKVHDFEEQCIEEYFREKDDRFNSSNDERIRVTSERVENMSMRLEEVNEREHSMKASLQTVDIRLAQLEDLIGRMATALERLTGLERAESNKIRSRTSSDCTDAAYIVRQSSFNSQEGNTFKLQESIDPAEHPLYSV
Experiment: Whole-cell patch clamp, HEK293T cells expressing WT hTRPM3
Type: cell-based
Conditions: WT
Experimental: HEK293T cells ([Graham et al., 1977]) were cultured as described previously ([Vriens et al., 2007]) and used up in passage number 14. HEK293T cells were tested for the lack of mycoplasma and transiently transfected with 2 µg of DNA using TransIT transfection reagent (Mirus) 36–48 hr before the measurements. In case of co-cultures a ratio of 1:1 between hTRPM3-YFP WT and mutants-YFP DNA was used.
Standard whole-cell patch-clamp recordings were performed with an EPC-10 amplifier and the PatchMasterPro Software (HEKA Elektronik, Lambrecht, Germany). Current measurements were performed at a sampling rate of 20 kHz and currents were digitally filtered at 2.9 kHz. In all measurements, 70% of the series resistance was compensated. The standard internal solution contained (in mM): 100 CsAsp, 45 CsCl, 10 EGTA, 10 HEPES, 1 MgCl2 (pH 7.2 with CsOH) or 140 potassium gluconate, 5 EGTA, 1 MgCl2, 10 HEPES and 2 NaATP (pH 7.3 with CsOH) for the measurements of Gβγ mediated inhibition and the standard extracellular solution contained (in mM): 150 NaCl, 1 MgCl2, 10 HEPES (pH 7.4 with NaOH). The standard patch pipette resistance was between 2 MΩ and 4 MΩ when filled with pipette solution. In experiments allowing Ca^2+-dependent desensitization of TRPM3, Mg^2+ was replaced by Ca^2+ in the extracellular solution, and Cs^+ was replaced by Na^+ in the pipette solution. […] The chemical ligands were dissolved in bath solution from a stock diluted in DMSO.

## Clc1ccccc1C(c1ccccc1)(c1ccccc1)n1ccnc1 [Clt, clotrimazole]
Clt 10 µM
  Activation of whole-cell currents in the absence of PS: did not activate currents by itself
Clt 10 µM, PS 40 µM
  Effect on the response to PS (whole-cell currents): potentiated responses to PS

## CCC1(c2ccccc2)C(=O)NCNC1=O [primidone]
Primidone 25 µM, PS 40 µM, ±80 mV, cells co-expressing µ-opioid receptor
  Inhibition of PS-activated inward and outward currents: full inhibition

## pregnenolone sulfate [PS]
PS 40 µM
  Activation of whole-cell currents: reversibly activated outwardly rectifying whole-cell currents
